Results published in patent US20130217694A1, “METHOD OF REDUCING THE SEVERITY OF INFLAMMATORY DERMATOLOGICAL CONDITIONS” (Allergan, Inc.., priority 2003, published 2013).

Assays:
[1] = target: T1, bovine α-1A adrenergic receptor (Bos taurus, UniProt P18130); test: Intracellular Ca+2 response in HEK293 cells expressing bovine α-1A receptor; type: cell-based; settings: for bovine α1A % E: percent efficacy relative to phenylephrine; for agonist activity at the α-1A receptor: result in words
T1 sequence (P18130 1-466): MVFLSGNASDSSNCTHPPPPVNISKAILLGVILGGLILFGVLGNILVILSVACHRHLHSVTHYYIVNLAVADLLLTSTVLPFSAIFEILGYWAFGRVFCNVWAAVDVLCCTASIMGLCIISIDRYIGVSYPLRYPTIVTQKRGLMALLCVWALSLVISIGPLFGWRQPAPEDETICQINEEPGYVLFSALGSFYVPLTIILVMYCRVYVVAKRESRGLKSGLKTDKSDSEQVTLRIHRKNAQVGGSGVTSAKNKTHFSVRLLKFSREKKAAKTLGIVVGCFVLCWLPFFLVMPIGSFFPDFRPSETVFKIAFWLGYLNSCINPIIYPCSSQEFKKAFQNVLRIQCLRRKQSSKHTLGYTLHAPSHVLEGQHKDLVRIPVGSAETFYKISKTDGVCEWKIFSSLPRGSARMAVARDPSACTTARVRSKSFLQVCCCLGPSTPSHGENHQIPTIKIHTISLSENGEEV
Procedure: (§1) The bovine α-1A and hamster α-1B receptor supernatants were added, in varying amounts, to naive HEK293 cells, which were then incubated for 48 hours. The transduced cell populations were replated at a lower density and grown in media containing 0.25 ug/ml puromycin. […] Receptor density was measured in a prazosin radioligand binding assay.
(§2) Intracellular Ca^+2 responses were measured as follows in HEK293 cells stably expressing either the bovine α-1A or hamster α-1B adrenergic receptor. Between 40,000 to 50,000 cells were plated per well in 96-well poly-D-lysine coated plates in 0.2 ml DMEM containing 10% heat-inactivated fetal calf serum, 1% antibiotic-antimycotic and 0.25 μg/ml puromycin one day prior to use. Cells were washed twice with HBSS supplemented with 10 mM HEPES, 2.0 mM CaCl2 and 2.5 mM probenicid, and subsequently incubated at 37° C. for 60 minutes with 4 μM Fluo-4 (Molecular Probes; Eugene, Oreg.). The extracellular dye was washed from the plates twice prior to placing the plates in the fluorometric imaging plate reader (FLIPR; Molecular Devices; Sunnyvale, Calif.). Ligands were diluted in HBSS and aliquoted into a 96-well microplate. Drugs were tested over the concentration range of 0.64 nM to 10,000 nM. Data for Ca^+2 responses were obtained in arbitrary fluorescence units.

mice [2] = test: Phenylephrine-induced tactile hypersensitivity in mice; type: in vivo, mouse; settings: for tactile (mechanical) hypersensitivity score: Phenylephrine (100 ng/kg I.P.), cumulative score 0 to 16, mean ± SEM
Procedure: To dissect the contribution of the sympathetic nervous system to sensory sensitization, mouse models having different mechanisms of sensory sensitization were developed. Tactile hypersensitivity was measured in mice following intrathecal or intraperitoneal injection of an inducing agent by scoring the response to light stroking of the mouse flank with a paintbrush.
(§3) Spinal drug injections were performed as follows. Mice (20-30 g) were injected intrathecally as described in Hylden and Wilcox, Eur. J. Pharmacol. 67:313-316 (1980). Briefly, a sterile 30-gauge ½ inch needle attached to a microsyringe was inserted between the L5 and L6 vertebrae. The mouse was held firmly by the pelvic girdle in one hand, while the syringe was held in the other hand at an angle of approximately 20° above the vertebral column. The needle was inserted into the tissue to one side of the L6 spinous process, into the groove between the spinous and transverse processes. The needle angle was decreased to about 10°, and the needle slowly advanced forward into the intervertebral space until a pop was felt and there was a visible serpentine tail movement. Compounds were slowly injected in the subarachnoid space in a volume of 5 μl. Each compound was tested at multiple doses. The minimal efficacious dose was used for all subsequent experiments.
Sensitivity to light touch was quantified by scoring the response of mice to light stroking of their flanks with a small paintbrush, which is not normally painful. […] The scores were summed to generate a cumulative score of 0 to 16 as described in Minami et al., Pain 57:217-223 (1994). Statistical calculations of significance for in vivo studies were done using a two-tailed Students t-test.

[3] = target: T2, hamster α-1B adrenergic receptor (Mesocricetus auratus, UniProt P18841); type: cell-based; settings: for hamster α1B % E: percent efficacy relative to phenylephrine; for agonist activity at the α-1B receptor: result in words
T2 sequence (P18841 1-515): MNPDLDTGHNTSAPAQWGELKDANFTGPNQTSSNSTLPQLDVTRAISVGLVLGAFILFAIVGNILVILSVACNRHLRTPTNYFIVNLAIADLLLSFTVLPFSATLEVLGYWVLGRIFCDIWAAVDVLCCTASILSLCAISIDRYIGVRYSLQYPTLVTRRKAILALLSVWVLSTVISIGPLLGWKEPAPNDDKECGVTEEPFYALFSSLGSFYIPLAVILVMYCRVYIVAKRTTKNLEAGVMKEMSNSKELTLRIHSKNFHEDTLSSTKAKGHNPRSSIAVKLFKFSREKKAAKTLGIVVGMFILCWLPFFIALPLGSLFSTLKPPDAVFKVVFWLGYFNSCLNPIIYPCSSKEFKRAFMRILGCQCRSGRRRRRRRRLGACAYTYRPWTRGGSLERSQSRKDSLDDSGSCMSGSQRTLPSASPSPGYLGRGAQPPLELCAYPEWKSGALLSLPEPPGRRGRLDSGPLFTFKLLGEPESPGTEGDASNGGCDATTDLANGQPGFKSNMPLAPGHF
Procedure: as §1, §2

human α-2C receptor = target: T3, human α-2C receptor (Homo sapiens, UniProt P18825); test: Inhibition of forskolin-induced cAMP accumulation in PC12 cells expressing human α-2C receptor; type: cell-based; settings: percent efficacy relative to brimonidine
T3 construct: expressed in transfected cells; host or cells: PC12 cells (retroviral vector pCL BABE Puro)
T3 sequence (P18825 1-462): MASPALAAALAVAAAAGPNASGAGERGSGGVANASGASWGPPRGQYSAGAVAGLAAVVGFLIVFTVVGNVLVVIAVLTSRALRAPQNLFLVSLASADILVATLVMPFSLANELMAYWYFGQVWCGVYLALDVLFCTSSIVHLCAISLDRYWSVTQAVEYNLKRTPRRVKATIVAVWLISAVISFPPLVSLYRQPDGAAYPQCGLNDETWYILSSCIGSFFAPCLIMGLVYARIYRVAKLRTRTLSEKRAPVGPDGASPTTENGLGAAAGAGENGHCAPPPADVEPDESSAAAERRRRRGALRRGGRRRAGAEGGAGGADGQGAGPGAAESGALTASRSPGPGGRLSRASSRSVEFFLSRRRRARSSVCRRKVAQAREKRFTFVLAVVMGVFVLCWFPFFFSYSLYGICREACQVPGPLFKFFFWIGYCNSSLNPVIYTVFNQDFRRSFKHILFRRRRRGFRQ
Procedure: (§4) The human α-2A and α-2C receptor supernatants were added, in varying amounts, to naive PC12 cells, which were then incubated for 48 hours. The transduced cell populations were replated at a lower density and grown in media containing 100 ug/ml puromycin.
(§5) Intracellular cAMP measurement was performed as follows. PC12 cells stably expressing the human α-2A or human α-2C adrenergic receptors were plated in 96-well poly-D-lysine coated plates at a density of 30,000 cells per well in 100 μl DMEM supplemented with 10% horse serum, 5% heat inactivated fetal bovine serum, 1% antibiotic-antimycotic and 100 μg/ml puromycin. Cells were grown overnight at 37° C. and 5% CO2. Cells were dosed by adding an equal volume of media containing IBMX (to a final concentration of 1 mM), forskolin (to a final concentration of 10 μM) and the appropriate drug dilution (to a final concentration of between 10^−5 M and 10^−12 M). After a 10 minute incubation, the media was aspirated and the cells lysed with 200 μl lysis buffer (Amersham Biosciences; Piscataway, N.J.). Plates were stored at −20° C. for up to 24 hours prior to assay. Intracellular cAMP was determined using the Biotrak cAMP enzyme immunoassay system (Amersham Biosciences) according to the manufacturer's instructions. Plates were read on a plate reader at 450 nm.

mice [4] = test: Sulprostone-induced tactile hypersensitivity in mice; type: in vivo, mouse; settings: for tactile (mechanical) hypersensitivity score: Sulprostone (200 ng IT), cumulative score 0 to 16, mean ± SEM; for analgesic activity in sulprostone-induced tactile hypersensitivity: result in words
Procedure: The activity of a synthetic EP1/EP3 receptor-selective prostaglandin agonist, sulprostone, also was assayed.
as §3, with “Mice (20-30 g) were injected intrathecally as described in Hylden and Wilcox, Eur. J. Pharmacol. 67:313-316 (1980).” left out
(§6) Sensitivity to light touch was quantified by scoring the response of mice to light stroking of their flanks with a small paintbrush, which is not normally painful. […] Statistical calculations of significance for in vivo studies were done using a two-tailed Students t-test.

mice [5] = test: NMDA-induced tactile hypersensitivity in mice; type: in vivo, mouse; settings: for tactile (mechanical) hypersensitivity score: NMDA (100 ng IT), cumulative score 0 to 16, mean ± SEM; for inhibition of NMDA-induced tactile hypersensitivity: result in words
Procedure: as §3, with “Mice (20-30 g) were injected intrathecally as described in Hylden and Wilcox, Eur. J. Pharmacol. 67:313-316 (1980).” left out
as §6

human α-2A receptor = target: T4, human α-2A receptor (Homo sapiens, UniProt P08913); settings: percent efficacy relative to brimonidine
T4 sequence (P08913 1-465): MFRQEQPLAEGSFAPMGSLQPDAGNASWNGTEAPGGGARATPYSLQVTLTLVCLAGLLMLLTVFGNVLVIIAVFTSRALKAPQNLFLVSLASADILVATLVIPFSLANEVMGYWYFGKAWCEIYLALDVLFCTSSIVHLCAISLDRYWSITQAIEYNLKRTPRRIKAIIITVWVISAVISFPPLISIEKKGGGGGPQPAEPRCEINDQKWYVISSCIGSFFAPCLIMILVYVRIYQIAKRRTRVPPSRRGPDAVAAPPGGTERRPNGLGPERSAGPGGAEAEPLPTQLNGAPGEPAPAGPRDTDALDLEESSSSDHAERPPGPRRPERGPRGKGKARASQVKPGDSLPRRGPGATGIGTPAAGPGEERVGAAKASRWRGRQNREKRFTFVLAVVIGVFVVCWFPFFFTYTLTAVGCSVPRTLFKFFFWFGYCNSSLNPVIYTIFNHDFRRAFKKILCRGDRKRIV
Procedure: as §4, §5

Row | SMILES | bovine α1A % E [1] | hamster α1B % E [3] | human α2C % E (human α-2C receptor) | tactile (mechanical) hypersensitivity score (mice [4]) | analgesic activity in sulprostone-induced tactile hypersensitivity (mice [4]; wildtype mice) | tactile (mechanical) hypersensitivity score (mice [5]) | tactile (mechanical) hypersensitivity score (mice [2]) | further results
1 | CNC[C@H](O)c1cccc(O)c1 [Phenylephrine] | 110% | 110% | 87% | – | – | – | – | strongly tactile hypersensitivity-inducing dose (mice [2]; i.p., wildtype mice): 30 ng/kg; dose resulting in maximal hypersensitivity (mice [2]; i.p., α-2A knockout mice): 0.3 ng/kg; dose resulting in maximal hypersensitivity (mice [2]; i.p., α-2C knockout mice): 0.1 ng/kg; dose at which significant tactile hypersensitivity starts (mice [2]; intraperitoneal, wildtype mice): 3 ng/kg; dose at which significant tactile hypersensitivity starts (mice [2]; intrathecal, wildtype mice): 3 ng
2 | CCN(Cc1cc(Br)ccc1OCc1ccccc1)c1ccc(C(=O)O)cn1 [EP1 antagonist] | – | – | – | 4.0 ± 1.2 | completely blocked | 11.4 ± 1.53 | 9.8 ± 0.7 | –
3 | Clc1ccc2nsnc2c1NC1=NCCN1 [Tizanidine] | 63% | 61% | 85% | – | – | – | – | human α2A % E (human α-2A receptor): 93%; agonist activity at the α-1A receptor [1]: partial agonists; agonist activity at the α-1B receptor [3]: partial agonists
4 | Cc1cccc([C@H](C)c2cnc[nH]2)c1C [Dexmedetomidine] | 59% | 62% | 90% | – | – | – | – | human α2A % E (human α-2A receptor): 93%; agonist activity at the α-1A receptor [1]: partial agonists; agonist activity at the α-1B receptor [3]: partial agonists
5 | CC12CC3CC(C)(C1)CC(N)(C3)C2.Cl [Memantine, 1-amino-3,5-dimethyladamantane hydrochloride] | – | – | – | 14.3 ± 0.8 | – | 4.2 ± 0.9 | 11.0 ± 0.7 | inhibition of NMDA-induced tactile hypersensitivity (mice [5]; wildtype mice): blocked
6 | CN[C@H](CC(=O)O)C(=O)O [NMDA] | – | – | – | – | – | – | – | dose of maximal tactile hypersensitivity effect (mice [5]; intrathecal, wildtype mice): 100 ng
7 | NCC1(CC(=O)O)CCCCC1 [Gabapentin] | – | – | – | 3.2 ± 0.5 | inhibited tactile hypersensitivity | 3.7 ± 0.8 | 13.0 | inhibition of NMDA-induced tactile hypersensitivity (mice [5]; wildtype mice): inhibited tactile hypersensitivity
8 | CS(=O)(=O)NC(=O)CCC/C=C\C[C@H]1C(=O)C[C@@H](O)[C@@H]1/C=C/[C@@H](O)COc1ccccc1 [Sulprostone] | – | – | – | – | – | – | – | maximal dose for tactile hypersensitivity (mice [4]; intrathecal, wild-type and α-2C knockout mice): 200 ng; maximally effective dose for tactile hypersensitivity (mice [4]; intrathecal, α-2A knockout mice): 30 ng
9 | COc1cc2nc(N3CCN(C(=O)c4ccco4)CC3)nc(N)c2cc1OC [Prazosin] | – | – | – | – | no analgesic activity | – | – | analgesic activity in sulprostone-induced tactile hypersensitivity (mice [4]; α-2C knockout mice): no analgesic activity
10 | COc1ccccc1N1CCN(CCCNc2c(C)c(=O)n(C)c(=O)n2C)CC1 [5-MU, 5-methyl urapidil] | – | – | – | 12.0 ± 1.0 | – | 13.3 ± 0.8 | 5.0 ± 1.0 | inhibition of phenylephrine-induced tactile hypersensitivity (mice [2]; wildtype mice, result in words): block the hypersensitive response
